Laboratory results published in patent US20190269771A1, “PEPTIDE MIMOTOPE THAT INDUCES AN IMMUNE RESPONSE AGAINST MYCOBACTERIUM TUBERCULOSIS LIPOARABINOMANNAN (LAM)” (priority 2017, published 2019).

Assays:
[1] = tested on: rabbit polyclonal anti-LAM antibody; assay: Peptide ELISA binding assay with rabbit polyclonal anti-LAM antibody; settings: for OD values, binding of rabbit polyclonal anti-LAM antibody by ELISA: coating 10 μg/ml
Experimental: The ELISA plate wells were coated with by adding each peptide (2 μg in 0.1M NaHCO3, pH 8.6) and incubating overnight at 4° C. After overnight incubation, plates were blocked with BSA (5 mg/ml) for 1 hour at 4° C. For controls, wells were coated with same amount of LAM or BSA. After washing with TBST, diluted 143 anti-LAM antibodies were added to the ELISA plate and incubated at room temperature for 1 hour. Plates were washed with TBST and HRP-conjugated secondary antibodies were added and incubated for 1 hour. After washing 3 times with TBST, 50 μl of the 1-Step™ Ultra TMB-ELISA (Thermo Scientific Co, Ltd) substrates was added in the dark. After color development, 50 μl of 2M sulfuric acid was added to stop the reaction and absorbance was measured at 450 nm.

[2] = tested on: two monoclonal antibodies against M. tuberculosis lipoarabinomannan (LAM); assay: Binding of recombinant M13 phages displaying the peptides to the anti-LAM mAbs; settings: peptide displayed on the g3p minor coat protein of recombinant M13 phage
[3] = tested on: Mouse anti-LAM antibodies; assay: ELISA with serum from LAM vaccinated mice against various antigens; format: binding; settings: Swiss-Webster mice vaccinated with LAM combined with alum; FIG. 2D
Experimental: To perform ELISAS, 96-well ELISA plates (Greiner Bio-One Catalogue #655-001) were coated with 10 μg of corresponding coating antigens: HS peptide, HSSR peptide, Baculovirus, SG peptide, SGSR peptide, or LAM resuspended in coating buffer (0.1M NaHCO3, pH 8.6). After overnight coating at 4° C., blocking (5% skim milk in PBS) was performed for 1 hour at room temperature. After washing 3 times with washing buffer (0.01% Tween-20 in PBS), mouse serum was added to the appropriate wells and binding proceeded at room temperature for 1 hour. […] After incubating for 1 hour at room temperature, the plate was washed 3 times with TBST and 50 μl 179 of the 1-Step™ Ultra TMB180 ELISA substrate (Thermo Scientific) was added. 50 ul of 2M sulfuric acid was then added to stop the reaction and absorbance was measured at 450 nm.

Substance: SGVYKVAYDWQH [SG peptide]
- OD values, binding of rabbit polyclonal anti-LAM antibody by ELISA ([1]; SG peptide experiment, FIG. 2C): 0.32
- binding affinity with both mAbs [2]: strong binding affinity

Substance: KLH alone: keyhole limpet hemocyanin carrier protein [reference compound]
- binding by serum from LAM vaccinated mice [3]: not

Substance: HSFKWLDSPRLR [HS peptide]
- OD values, binding of rabbit polyclonal anti-LAM antibody by ELISA ([1]; HS peptide experiment, FIG. 2B): 0.45
- binding affinity with both mAbs [2]: strong binding affinity

Substance: CISLTEWSMWYRH [Peptide P8, previously published LAM mimotope peptide, reference compound]
- detection of KLH-conjugated peptide by rabbit anti-LAM polyclonal antibody above control ([1]; peptides conjugated to KLH vs scramble control, only at the 1:1000 dilution, FIG. 1B-E): could be specifically detected
